Columns and labels:
Experiment in all cases: radiometric citrulline NOS assay
Assay type in all cases: biochemical
[1] = target: T1, Physarum NOS form A (clone A1; physnosa) (Badhamia polycephala, UniProt A6XKZ4)
[2] = target: T2, Physarum NOS form B (clone B+; physnosb) (Badhamia polycephala, UniProt A6XKZ6)
[3] = target: T1, Physarum NOS form A (clone A1; physnosa); remark: listed apart in the source
[4] = target: T2, Physarum NOS form B (clone B+; physnosb); remark: listed apart in the source

Row | SMILES | EC50 [1] [µM] | EC50 [2] [µM] | IC50 [3] [µM] | IC50 [4] [µM]
1 | NC(=O)C1=CN([C@@H]2O[C@H](COP(=O)(O)OP(=O)(O)OC[C@H]3O[C@@H](n4cnc5c(N)ncnc54)[C@H](OP(=O)(O)O)[C@@H]3O)[C@@H](O)[C@H]2O)C=CC1 [NADPH] | 57.2 ± 6.5 | 60.3 ± 13.8 | – | –
2 | C[C@H](O)[C@H](O)[C@H]1CNc2nc(N)[nH]c(=O)c2N1 [H4-bip, 6R-5,6,7,8-tetrahydro-L-biopterin] | 7.9 ± 1.2 | 0.7 ± 0.1 | – | –
3 | Cc1cc2nc3c(=O)[nH]c(=O)nc-3n(C[C@H](O)[C@H](O)[C@H](O)COP(=O)(O)OP(=O)(O)OC[C@H]3O[C@@H](n4cnc5c(N)ncnc54)[C@H](O)[C@@H]3O)c2cc1C [FAD] | 3.9 ± 1.6 | 2.1 ± 1.6 | – | –
4 | Cc1cc2nc3c(=O)[nH]c(=O)nc-3n(C[C@H](O)[C@H](O)[C@H](O)COP(=O)(O)O)c2cc1C [FMN] | 1.7 ± 0.6 | 0.2 ± 0.2 | – | –
5 | N=C(NCCC[C@H](N)C(=O)O)N[N+](=O)[O-] [L-NNA, N^ω-nitro-L-arginine] | – | – | 25.7 ± 10.7 | 39.8 ± 20.3
6 | CNC(=N)NCCC[C@H](N)C(=O)O [L-NMMA, N^ω-methyl-L-arginine] | – | – | 45.2 ± 23.5 | 44.3 ± 19.2
7 | CC(=N)NCCCC[C@H](N)C(=O)O [L-NIL, L-N6(1-iminoethyl)-lysine] | – | – | 81.3 ± 7.8 | 76.7 ± 4.3
